Source: patent US20030108576A1, “Composition” (Colgate-Palmolive Company, priority 2001, published 2003)

Test: Vitamin E stability aging of the compositions in clear PET packaging
Format: physicochemical
Experimental: Samples of each example are put on stability aging using clear PET packaging at room temperature, 77° F.; high temperature, 110° F.; and in the window for natural sunlight exposure. Samples are evaluated for vitamin content initially, then again at 4,8, and 13 weeks. Below are the results.

For CC(C)(C)c1cc(O)ccc1O [2-tertiary butyl hydroquinone], the “retention of vitamin E compared with other antioxidants” value (77° F. and 110° F.) was “essentially equivalent to the other antioxidants” and the “retention of vitamin E in sunlight compared with other test antioxidants” value (sunlight) was “substantially more retention of vitamin E in sunlight than any of the other test antioxidants”.
